According to patent US20240317741A1, “NAPHTHYRIDINE DERIVATIVE AS ATR INHIBITOR AND METHOD FOR PREPARING SAME” (WIGEN BIOMEDICINE TECHNOLOGY (SHANGHAI) CO., LTD., priority 2021, published 2024):

Experiments:
MIA PaCa-2 cells [1] = experiment: In-vitro anti-proliferative activity against MIA PaCa-2 cells; type: cell-based; conditions: 72 h after dosing, intracellular ATP content
Description: MIA PaCa-2 cells were seeded on a 384-well plate at 3000 cells/well. After overnight adherence culture, DMSO or the compounds serially diluted 1:5 from 5 μM were added. […] The inhibition percentage of viable cells by the compounds was calculated by comparing with the DMSO group, and the IC50 value was calculated.

MIA PaCa-2 cells [2] = experiment: In-vitro anti-proliferative activity in combination with gemcitabine against MIA PaCa-2 cells; type: cell-based; conditions: in combination with 20 nM gemcitabine, 72 h after dosing
Description: MIA PaCa-2 cells were seeded on a 384-well plate at 3000 cells/well, and 20 nM gemcitabine was added. After overnight adherence culture, DMSO or the compounds serially diluted 1:5 from 100 nM were added. […] The inhibition percentage of viable cells by the compounds was calculated by comparing with the DMSO group, and the IC50 value was calculated.

[3] = Liver microsomal stability (human); type: in vitro ADME; conditions: human liver microsomes, 1 μM compound, NADPH regeneration system, 37° C.; for half-life at 1 μM: read-out: T1/2 (min) Human
Description: (§1) After 1 μM compound was incubated with 500 µg/mL of human or mouse liver microsomes and a NADPH regeneration system at 37° C. for different times, respectively, LC-MS-MS was used to analyze the remaining amount of the compound and calculate T1/2.

[4] = Liver microsomal stability (mouse); type: in vitro ADME; conditions: mouse liver microsomes, 1 μM compound, NADPH regeneration system, 37° C.; for half-life at 1 μM: read-out: T1/2 (min) Mouse
Description: as §1

[5] = In vivo pharmacokinetic experiment in mice; parameters: species or system CD-1 female mice; conditions: for Vd: read-out: Vdss
Description: CD-1 female mice aged 7 to 10 weeks were intravenously administered and orally administered at a dose of 2 mg/kg and 10 mg/kg, respectively. The mice were fasted for at least 12 h before the administration and given food 4 h after the administration, and they were given ad libitum access to water during the experiment.
On the day of the experiment, animals in the intravenous group were administered the corresponding compound by single injection via the tail vein at an administration volume of 10 mL/kg, and animals in the oral group were administered the corresponding compound by single intragastric injection at an administration volume of 10 mL/kg. The animals were weighed before administration, and the administration volume was calculated according to the body weight. The sample collection time was 0.083 h, 0.167 h, 0.5 h, 1 h, 2 h, 4 h, 8 h and 24 h. About 200 μL of whole blood was collected through the orbital venous plexus at each time point and used to prepare plasma for concentration determination by high performance liquid chromatography-tandem mass spectrometry (LC-MS/MS). The plasma concentrations were processed using a non-compartmental model of Winnolin pharmacokinetic software, and the pharmacokinetic parameters were calculated using a linear-log trapezoidal method.

[6] = Pharmacokinetic evaluation in rats; type: in vivo, SD female rats
Description: SPF-grade SD female rats aged 7 to 10 weeks were intravenously administered and orally administered at a dose of 1 mg/kg and 10 mg/kg, respectively. The rats were fasted for at least 12 h before the administration and given food 4 h after the administration, and they were given ad libitum access to water during the experiment.
On the day of the experiment, animals in the intravenous group were administered the corresponding compound by single injection via the tail vein at an administration volume of 2 mL/kg, and animals in the oral group were administered the corresponding compound by single intragastric injection at an administration volume of 10 mL/kg. The animals were weighed before administration, and the administration volume was calculated according to the body weight. The sample collection time was 0.083 h (only intravenous group), 0.125 h (only oral group), 0.25 h, 0.5 h, 1 h, 2 h, 4 h, 6 h, 8 h and 24 h. About 200 μL of whole blood (EDTA-K2 anticoagulated) was collected via the jugular vein or other suitable vein at each time point and used to prepare plasma for concentration determination by high performance liquid chromatography-tandem mass spectrometry (LC-MS/MS). All animals were suffocated by CO2 after the PK samples were collected at the last time point. The plasma concentrations were processed using a non-compartmental model of Winnolin™ version 8.2 (Pharsight, mountain View, CA) pharmacokinetic software, and the pharmacokinetic parameters were calculated using a linear-log trapezoidal method.

[7] = system: Human colon cancer LOVO cells; experiment: In vivo efficacy in LoVo model; parameters: species or system nude mouse; conditions: LoVo model in nude mice, 20 mpk BID PO, days 1-3, 8-10, 15-17 and day 21
Description: After being subcultured, the cells were collected when they reached the desired amount. 1×10^7 LOVO cells were injected into the left dorsal side of each nude mouse, and the animals were randomly grouped for administration after tumors grew to 100-200 mm^3. The groups were as follows: a solvent control group of 8 mice and a compound group of 8 mice. The compounds were administered orally 3 days a week and interrupted for 4 days, for 21 consecutive days. The vehicle was a 0.5% MC suspension containing 1% tween-80. On Tuesday and Thursday each week, tumor volumes and body weight of the mice were measured, and the nude mice were sacrificed on day 21 after the administration. […] The toxicity of the compounds was evaluated according to the body weight of the mice.

[8] = system: Human colon cancer HT29 cells; experiment: In vivo efficacy in HT-29 model, alone and with gemcitabine; parameters: species or system nude mouse; conditions: HT-29 model in nude mice, day 21
Description: After being subcultured, the cells were collected when they reached the desired amount. 1×10^7 HT29 cells were injected into the left dorsal side of each nude mouse, and the animals were randomly grouped for administration after tumors grew to 100-200 mm^3. The groups were as follows: a solvent control group of 6 mice, a single drug group of 15 mg/kg gemcitabine (GMC), and a combination group of 15 mg/kg gemcitabine and a compound. Gemcitabine was administered intraperitoneally with PBS as a vehicle once a week. The compounds were administered 3 days a week and interrupted for 4 days (3 on/4 off), for 21 consecutive days, and the vehicle was a 0.5% MC suspension containing 1% tween-80. On Tuesday and Thursday each week, tumor volumes and body weight of the mice were measured, and the nude mice were sacrificed on day 21 after the administration. […] The toxicity of the compounds was evaluated according to the body weight of the mice.

[9] = compound 20 mpk BID PO 3 on/4 off + GMC 15 mpk QW IP
[10] = female, CD-1, mouse, plasma, Oral administration (10 mg/kg)
[11] = female, CD-1, mouse, plasma, Oral administration (10 mg/kg), read-out: Cmax
[12] = female, CD-1, mouse, plasma, Oral administration (10 mg/kg), read-out: Tmax
[13] = female, CD-1, mouse, plasma, iv, Injection (2 mg/kg)
[14] = female, SD, rat, plasma, Oral administration (10 mg/kg)
[15] = female, SD, rat, plasma, iv, Injection (1 mg/kg)
[16] = single agent, 20 mpk BID PO, 3on/4off

(R)-1-(2-(3-methylmorpholino)-8-(1H-pyrazol-5-yl)-1,7-naphthyridin-4-ylmethyl)cyclohexane-1-carbonitrile [Compound 25]
IC50 (MIA PaCa-2 cells [1]): < 1000 nM
IC50 (MIA PaCa-2 cells [2]): 0.257 nM
T1/2 (min) Human [3]: 7.90 min
T1/2 (min) Mouse [4]: 2.90 min
AUC0-last ([5]; Injection (2 mg/kg)): 203.21 ng·h/mL
Cl ([5]; Injection (2 mg/kg)): 82.02 mL/min/kg
T1/2 ([5]; Injection (2 mg/kg)): 19.8 min
Vdss ([5]; Injection (2 mg/kg)): 1.84 L/kg
AUC0-last ([5]; Oral administration (10 mg/kg)): 1103.1 ng·h/mL
Cmax ([5]; Oral administration (10 mg/kg)): 455 ng/mL
F % ([5]; Oral administration (10 mg/kg)): 54.3%
T1/2 ([5]; Oral administration (10 mg/kg)): 53.4 min
Tmax ([5]; Oral administration (10 mg/kg)): 60 min
AUC0-last ([6]; Injection (1 mg/kg)): 269.92 ng·h/mL
Cl ([6]; Injection (1 mg/kg)): 61.75 mL/min/kg
T1/2 ([6]; Injection (1 mg/kg)): 39 min
Vdss ([6]; Injection (1 mg/kg)): 2.14 L/kg
AUC0-last ([6]; Oral administration (10 mg/kg)): 1309.43 ng·h/mL
Cmax ([6]; Oral administration (10 mg/kg)): 396.33 ng/mL
F % ([6]; Oral administration (10 mg/kg)): 48.5%
T1/2 ([6]; Oral administration (10 mg/kg)): 30 min
Tmax ([6]; Oral administration (10 mg/kg)): 54 min
TGI(%) [7]: 84.0%
TGI(%) [8, 9]: 86.1%

C[C@@H]1COCCN1c1cc(C2(C#N)CCOCC2)c2ccnc(-c3ccn[nH]3)c2n1 [Compound 29]
IC50 (MIA PaCa-2 cells [1]; Homo sapiens): < 1000 nM
IC50 (MIA PaCa-2 cells [2]): 1.5 nM
half-life at 1 μM [3]: 51.4 min
half-life at 1 μM [4]: 8.68 min
AUC(0-t) [5, 10]: 3300 ng·h/mL
bioavailability [5, 10]: 34.5%
half-life [5, 10]: 46.8 min
Cmax [5, 11]: 1720 ng/mL
Tmax [5, 12]: 30 min
AUC(0-t) [5, 13]: 1920 ng·h/mL
clearance [5, 13]: 17.4 mL/min/kg
half-life [5, 13]: 40.2 min
Vd [5, 13]: 0.58 L/kg
AUC(0-t) [6, 14]: 8030 ng·h/mL
bioavailability [6, 14]: 120%
half-life [6, 14]: 171 min
Cmax ([6]; female, SD, rat, plasma, Oral administration (10 mg/kg), read-out: Cmax): 1550 ng/mL
Tmax ([6]; female, SD, rat, plasma, Oral administration (10 mg/kg), read-out: Tmax): 60 min
AUC(0-t) [6, 15]: 669 ng·h/mL
clearance [6, 15]: 24.9 mL/min/kg
half-life [6, 15]: 103 min
Vd ([6]; female, SD, rat, plasma, iv, Injection (1 mg/kg), read-out: Vdss): 3 L/kg
TGI(%) [7]: 83.2%
TGI(%) [8, 9]: 85.3%
TGI(%) [8, 16]: 49.9%

C[C@@H]1COCCN1c1cc(C2(C#N)CCN(C)CC2)c2ccnc(-c3ccn[nH]3)c2n1 [Compound 43]
IC50 (MIA PaCa-2 cells [1]; Homo sapiens): < 1000 nM
IC50 (MIA PaCa-2 cells [2]): 1.24 nM
half-life at 1 μM [3]: 9.44 min
half-life at 1 μM [4]: 18.9 min
AUC(0-t) [5, 10]: 439 ng·h/mL
bioavailability [5, 10]: 35.5%
half-life [5, 10]: 47.4 min
Cmax [5, 11]: 616 ng/mL
Tmax [5, 12]: 15 min
AUC(0-t) [5, 13]: 247 ng·h/mL
clearance [5, 13]: 135 mL/min/kg
half-life [5, 13]: 13.2 min
Vd [5, 13]: 1.79 L/kg
TGI(%) [7]: 75.3%
TGI(%) [8, 9]: 84.4%
TGI(%) [8, 16]: 51.2%

C[C@@H]1COCCN1c1cc(C2(C#N)CCC(N(C)C)CC2)c2ccnc(-c3ccn[nH]3)c2n1 (stereo partly drawn) [Compound 34, (R)-4-(dimethylamino)-1-(2-(3-methylmorpholine)-8-(1H-pyrazol-5-yl)-1,7-naphthyridin-4-yl)cyclohexane-1-carbonitrile]
IC50 (MIA PaCa-2 cells [1]; Homo sapiens): < 1000 nM
IC50 (MIA PaCa-2 cells [2]): 0.624 nM
half-life at 1 μM [3]: 61.4 min
half-life at 1 μM [4]: 52.4 min
TGI(%) [7]: 81.4%
TGI(%) [8, 9]: 78.1%
TGI(%) [8, 16]: 58.3%

C[C@@H]1COCCN1c1cc(C2(C#N)CCC(O)CC2)c2ccnc(-c3ccn[nH]3)c2n1 (stereo partly drawn) [Compound 33, (R)-4-hydroxy-1-(2-(3-methylmorpholine)-8-(1H-pyrazol-5-yl)-1,7-naphthyridin-4-yl)cyclohexane-1-carbonitrile]
IC50 (MIA PaCa-2 cells [1]; Homo sapiens): < 1000 nM
IC50 (MIA PaCa-2 cells [2]): 1.08 nM
half-life at 1 μM [3]: 632 min
half-life at 1 μM [4]: 19.6 min
AUC(0-t) [5, 10]: 937 ng·h/mL
bioavailability [5, 10]: 31.8%
half-life [5, 10]: 41.4 min
Cmax [5, 11]: 1010 ng/mL
Tmax [5, 12]: 30 min
AUC(0-t) [5, 13]: 588 ng·h/mL
clearance [5, 13]: 56.6 mL/min/kg
half-life [5, 13]: 96.6 min
Vd [5, 13]: 1.27 L/kg
TGI(%) [7]: 79.1%
TGI(%) [8, 9]: 82.3%
TGI(%) [8, 16]: 57.4%
